# Source: PubChem BioAssay AID2060627 (Molecular Pharmacology Branch, DTP, NCI, 2025)
# Several values for one entry are separate records, joined by “and”; a condition that tells them apart may be missing. Identical values can stand only once.
# Tested on: 156681-154-R-J1-PDC complex spheroid viability
# Assay: Anticancer human tumor 156681-154-R-J1-PDC patient-derived melanoma cell line growth inhibition [CLK]
# Conditions: compound 0.0316 µM; stronger effect = lower value
# Procedure, shortened: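 Multi-cell-type spheroids combined patient-derived tumor cells with HUVEC endothelial cells and human mesenchymal stem cells. Paired agents were dosed in half-log steps down from about clinical Cmax, or from 10 microM where Cmax was unknown.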
# 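Further: spheroids exposed to the agents for seven days.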
# 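Wherever viability, T/C is given: 100% = DMSO vehicle control viability.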
row,Structure (SMILES),"viability, T/C"
1,CC1COCCN1c1cc(C2(S(C)(=N)=O)CC2)nc(-c2ccnc3[nH]ccc23)n1 (centres undefined),78.6% and 84.9%
2,Nc1ccn(C2OC(CO)C(O)C2(F)F)c(=O)n1 (centres undefined),14.4% and 13.7%
3,CN1CCN(c2cc(C(=O)Nc3cc4cc(-c5cnn(C)c5)ccc4cn3)ccn2)CC1,102% [middle of 12 runs]
4,CNC(=O)c1ccc(Nc2nc(OC3CCCC3)c3c(-c4ccc5nc(C)oc5c4)c[nH]c3n2)c(OC)c1,105% [middle of 12 runs]

# Same assay, conditions: compound 0.1 µM; stronger effect = lower value
row,Structure (SMILES),"viability, T/C"
1,CC1COCCN1c1cc(C2(S(C)(=N)=O)CC2)nc(-c2ccnc3[nH]ccc23)n1 (centres undefined),88.3% and 97.8%
2,Nc1ccn(C2OC(CO)C(O)C2(F)F)c(=O)n1 (centres undefined),13.7% and 12.6%
3,CN1CCN(c2cc(C(=O)Nc3cc4cc(-c5cnn(C)c5)ccc4cn3)ccn2)CC1,97.7% [middle of 12 runs]
4,CNC(=O)c1ccc(Nc2nc(OC3CCCC3)c3c(-c4ccc5nc(C)oc5c4)c[nH]c3n2)c(OC)c1,63% [middle of 12 runs]

# Same assay, conditions: compound 0.316 µM; stronger effect = lower value
row,Structure (SMILES),"viability, T/C"
1,CC1COCCN1c1cc(C2(S(C)(=N)=O)CC2)nc(-c2ccnc3[nH]ccc23)n1 (centres undefined),85.9% and 86.3%
2,Nc1ccn(C2OC(CO)C(O)C2(F)F)c(=O)n1 (centres undefined),15.7% and 16.1%
3,CN1CCN(c2cc(C(=O)Nc3cc4cc(-c5cnn(C)c5)ccc4cn3)ccn2)CC1,24.3% [middle of 12 runs]
4,CNC(=O)c1ccc(Nc2nc(OC3CCCC3)c3c(-c4ccc5nc(C)oc5c4)c[nH]c3n2)c(OC)c1,54.3% [middle of 12 runs]

# Same assay, conditions: compound 1 µM; stronger effect = lower value
row,Structure (SMILES),"viability, T/C"
1,CC1COCCN1c1cc(C2(S(C)(=N)=O)CC2)nc(-c2ccnc3[nH]ccc23)n1 (centres undefined),61.9% and 48%
2,Nc1ccn(C2OC(CO)C(O)C2(F)F)c(=O)n1 (centres undefined),12.8% and 13.2%
3,CN1CCN(c2cc(C(=O)Nc3cc4cc(-c5cnn(C)c5)ccc4cn3)ccn2)CC1,1.19% [middle of 12 runs]
4,CNC(=O)c1ccc(Nc2nc(OC3CCCC3)c3c(-c4ccc5nc(C)oc5c4)c[nH]c3n2)c(OC)c1,36.4% [middle of 11 runs]

# Same assay, conditions: compound 3.16 µM; stronger effect = lower value
row,Structure (SMILES),"viability, T/C"
1,CC1COCCN1c1cc(C2(S(C)(=N)=O)CC2)nc(-c2ccnc3[nH]ccc23)n1 (centres undefined),24% and 20.1%
2,Nc1ccn(C2OC(CO)C(O)C2(F)F)c(=O)n1 (centres undefined),16.9% and 14.6%
3,CN1CCN(c2cc(C(=O)Nc3cc4cc(-c5cnn(C)c5)ccc4cn3)ccn2)CC1,0.58% [middle of 11 runs]
4,CNC(=O)c1ccc(Nc2nc(OC3CCCC3)c3c(-c4ccc5nc(C)oc5c4)c[nH]c3n2)c(OC)c1,42.1% [middle of 12 runs]

# Same assay, conditions: compound 10 µM; stronger effect = lower value
row,Structure (SMILES),"viability, T/C"
1,CC1COCCN1c1cc(C2(S(C)(=N)=O)CC2)nc(-c2ccnc3[nH]ccc23)n1 (centres undefined),15.4% and 13.1%
2,Nc1ccn(C2OC(CO)C(O)C2(F)F)c(=O)n1 (centres undefined),13.1% and 14.5%
3,CN1CCN(c2cc(C(=O)Nc3cc4cc(-c5cnn(C)c5)ccc4cn3)ccn2)CC1,0.34% [middle of 10 runs]

# Same assay, conditions: compound alone; run of 08/14/2023
row,IC50,Structure (SMILES)
1,212 nM [middle of 9 runs],CN1CCN(c2cc(C(=O)Nc3cc4cc(-c5cnn(C)c5)ccc4cn3)ccn2)CC1

# Same assay, conditions: curve of compound
row,IC50,Structure (SMILES)
1,1440 nM and 956 nM,CC1COCCN1c1cc(C2(S(C)(=N)=O)CC2)nc(-c2ccnc3[nH]ccc23)n1 (centres undefined)
2,< 31.6 nM,Nc1ccn(C2OC(CO)C(O)C2(F)F)c(=O)n1 (centres undefined)

# Same assay, conditions: curve of first compound; second compound 0.0316 µM
row,Structure (SMILES),IC50 [nM]
1,C=C(F)C(=O)N1CCN(c2nc(OCC3CCCN3C)nc3c2CCN(c2cccc4cccc(Cl)c24)C3)CC1CC#N (centres undefined) + CN1CCN(c2cc(C(=O)Nc3cc4cc(-c5cnn(C)c5)ccc4cn3)ccn2)CC1,2590
2,COc1ccc([C@@H](O)c2cc(-c3ncnc4cc(N5CCOCC5)ccc34)c(F)cc2Cl)nn1 + CN1CCN(c2cc(C(=O)Nc3cc4cc(-c5cnn(C)c5)ccc4cn3)ccn2)CC1,2400
3,CCCS(=O)(=O)Nc1ccc(F)c(C(=O)c2c[nH]c3ncc(-c4ccc(Cl)cc4)cc23)c1F + CNC(=O)c1ccc(Nc2nc(OC3CCCC3)c3c(-c4ccc5nc(C)oc5c4)c[nH]c3n2)c(OC)c1,4960
4,O=C(c1cc(Cc2n[nH]c(=O)c3ccccc23)ccc1F)N1CCN(C(=O)C2CC2)CC1 + CNC(=O)c1ccc(Nc2nc(OC3CCCC3)c3c(-c4ccc5nc(C)oc5c4)c[nH]c3n2)c(OC)c1,> 10000
5,CC(Nc1ccc2c(c1)OCCn1cc(N3C(=O)OCC3C(F)F)nc1-2)C(N)=O (centres undefined) + CN1CCN(c2cc(C(=O)Nc3cc4cc(-c5cnn(C)c5)ccc4cn3)ccn2)CC1,302

# Same assay, conditions: curve of first compound; second compound 0.1 µM
row,Structure (SMILES),IC50 [nM]
1,C=C(F)C(=O)N1CCN(c2nc(OCC3CCCN3C)nc3c2CCN(c2cccc4cccc(Cl)c24)C3)CC1CC#N (centres undefined) + CN1CCN(c2cc(C(=O)Nc3cc4cc(-c5cnn(C)c5)ccc4cn3)ccn2)CC1,1770
2,COc1ccc([C@@H](O)c2cc(-c3ncnc4cc(N5CCOCC5)ccc34)c(F)cc2Cl)nn1 + CN1CCN(c2cc(C(=O)Nc3cc4cc(-c5cnn(C)c5)ccc4cn3)ccn2)CC1,1450
3,CCCS(=O)(=O)Nc1ccc(F)c(C(=O)c2c[nH]c3ncc(-c4ccc(Cl)cc4)cc23)c1F + CNC(=O)c1ccc(Nc2nc(OC3CCCC3)c3c(-c4ccc5nc(C)oc5c4)c[nH]c3n2)c(OC)c1,3870
4,O=C(c1cc(Cc2n[nH]c(=O)c3ccccc23)ccc1F)N1CCN(C(=O)C2CC2)CC1 + CNC(=O)c1ccc(Nc2nc(OC3CCCC3)c3c(-c4ccc5nc(C)oc5c4)c[nH]c3n2)c(OC)c1,> 10000
5,CC(Nc1ccc2c(c1)OCCn1cc(N3C(=O)OCC3C(F)F)nc1-2)C(N)=O (centres undefined) + CN1CCN(c2cc(C(=O)Nc3cc4cc(-c5cnn(C)c5)ccc4cn3)ccn2)CC1,241

# Same assay, conditions: curve of first compound; second compound 0.316 µM
row,Structure (SMILES),IC50 [nM]
1,C=C(F)C(=O)N1CCN(c2nc(OCC3CCCN3C)nc3c2CCN(c2cccc4cccc(Cl)c24)C3)CC1CC#N (centres undefined) + CN1CCN(c2cc(C(=O)Nc3cc4cc(-c5cnn(C)c5)ccc4cn3)ccn2)CC1,< 31.6
2,COc1ccc([C@@H](O)c2cc(-c3ncnc4cc(N5CCOCC5)ccc34)c(F)cc2Cl)nn1 + CN1CCN(c2cc(C(=O)Nc3cc4cc(-c5cnn(C)c5)ccc4cn3)ccn2)CC1,< 31.6
3,CCCS(=O)(=O)Nc1ccc(F)c(C(=O)c2c[nH]c3ncc(-c4ccc(Cl)cc4)cc23)c1F + CNC(=O)c1ccc(Nc2nc(OC3CCCC3)c3c(-c4ccc5nc(C)oc5c4)c[nH]c3n2)c(OC)c1,2090
4,O=C(c1cc(Cc2n[nH]c(=O)c3ccccc23)ccc1F)N1CCN(C(=O)C2CC2)CC1 + CNC(=O)c1ccc(Nc2nc(OC3CCCC3)c3c(-c4ccc5nc(C)oc5c4)c[nH]c3n2)c(OC)c1,> 10000
5,CC(Nc1ccc2c(c1)OCCn1cc(N3C(=O)OCC3C(F)F)nc1-2)C(N)=O (centres undefined) + CN1CCN(c2cc(C(=O)Nc3cc4cc(-c5cnn(C)c5)ccc4cn3)ccn2)CC1,< 31.6

# Same assay, conditions: curve of first compound; second compound 1 µM
row,Structure (SMILES),IC50 [nM]
1,C=C(F)C(=O)N1CCN(c2nc(OCC3CCCN3C)nc3c2CCN(c2cccc4cccc(Cl)c24)C3)CC1CC#N (centres undefined) + CN1CCN(c2cc(C(=O)Nc3cc4cc(-c5cnn(C)c5)ccc4cn3)ccn2)CC1,< 31.6
2,COc1ccc([C@@H](O)c2cc(-c3ncnc4cc(N5CCOCC5)ccc34)c(F)cc2Cl)nn1 + CN1CCN(c2cc(C(=O)Nc3cc4cc(-c5cnn(C)c5)ccc4cn3)ccn2)CC1,< 31.6
3,CCCS(=O)(=O)Nc1ccc(F)c(C(=O)c2c[nH]c3ncc(-c4ccc(Cl)cc4)cc23)c1F + CNC(=O)c1ccc(Nc2nc(OC3CCCC3)c3c(-c4ccc5nc(C)oc5c4)c[nH]c3n2)c(OC)c1,< 31.6
4,O=C(c1cc(Cc2n[nH]c(=O)c3ccccc23)ccc1F)N1CCN(C(=O)C2CC2)CC1 + CNC(=O)c1ccc(Nc2nc(OC3CCCC3)c3c(-c4ccc5nc(C)oc5c4)c[nH]c3n2)c(OC)c1,481
5,CC(Nc1ccc2c(c1)OCCn1cc(N3C(=O)OCC3C(F)F)nc1-2)C(N)=O (centres undefined) + CN1CCN(c2cc(C(=O)Nc3cc4cc(-c5cnn(C)c5)ccc4cn3)ccn2)CC1,< 31.6

# Same assay, conditions: curve of first compound; second compound 3.16 µM
row,Structure (SMILES),IC50 [nM]
1,C=C(F)C(=O)N1CCN(c2nc(OCC3CCCN3C)nc3c2CCN(c2cccc4cccc(Cl)c24)C3)CC1CC#N (centres undefined) + CN1CCN(c2cc(C(=O)Nc3cc4cc(-c5cnn(C)c5)ccc4cn3)ccn2)CC1,< 31.6
2,COc1ccc([C@@H](O)c2cc(-c3ncnc4cc(N5CCOCC5)ccc34)c(F)cc2Cl)nn1 + CN1CCN(c2cc(C(=O)Nc3cc4cc(-c5cnn(C)c5)ccc4cn3)ccn2)CC1,< 31.6
3,CCCS(=O)(=O)Nc1ccc(F)c(C(=O)c2c[nH]c3ncc(-c4ccc(Cl)cc4)cc23)c1F + CNC(=O)c1ccc(Nc2nc(OC3CCCC3)c3c(-c4ccc5nc(C)oc5c4)c[nH]c3n2)c(OC)c1,< 31.6
4,O=C(c1cc(Cc2n[nH]c(=O)c3ccccc23)ccc1F)N1CCN(C(=O)C2CC2)CC1 + CNC(=O)c1ccc(Nc2nc(OC3CCCC3)c3c(-c4ccc5nc(C)oc5c4)c[nH]c3n2)c(OC)c1,< 31.6
5,CC(Nc1ccc2c(c1)OCCn1cc(N3C(=O)OCC3C(F)F)nc1-2)C(N)=O (centres undefined) + CN1CCN(c2cc(C(=O)Nc3cc4cc(-c5cnn(C)c5)ccc4cn3)ccn2)CC1,< 31.6

# Same assay, conditions: curve of first compound; second compound 10 µM
row,Structure (SMILES),IC50 [nM]
1,C=C(F)C(=O)N1CCN(c2nc(OCC3CCCN3C)nc3c2CCN(c2cccc4cccc(Cl)c24)C3)CC1CC#N (centres undefined) + CN1CCN(c2cc(C(=O)Nc3cc4cc(-c5cnn(C)c5)ccc4cn3)ccn2)CC1,< 31.6
2,COc1ccc([C@@H](O)c2cc(-c3ncnc4cc(N5CCOCC5)ccc34)c(F)cc2Cl)nn1 + CN1CCN(c2cc(C(=O)Nc3cc4cc(-c5cnn(C)c5)ccc4cn3)ccn2)CC1,< 31.6
3,CCCS(=O)(=O)Nc1ccc(F)c(C(=O)c2c[nH]c3ncc(-c4ccc(Cl)cc4)cc23)c1F + CNC(=O)c1ccc(Nc2nc(OC3CCCC3)c3c(-c4ccc5nc(C)oc5c4)c[nH]c3n2)c(OC)c1,< 31.6
4,O=C(c1cc(Cc2n[nH]c(=O)c3ccccc23)ccc1F)N1CCN(C(=O)C2CC2)CC1 + CNC(=O)c1ccc(Nc2nc(OC3CCCC3)c3c(-c4ccc5nc(C)oc5c4)c[nH]c3n2)c(OC)c1,< 31.6
5,CC(Nc1ccc2c(c1)OCCn1cc(N3C(=O)OCC3C(F)F)nc1-2)C(N)=O (centres undefined) + CN1CCN(c2cc(C(=O)Nc3cc4cc(-c5cnn(C)c5)ccc4cn3)ccn2)CC1,< 31.6

# Same assay, conditions: second compound 0.0316 µM; first compound 0.0316 µM; stronger effect = lower value
row,Structure (SMILES),"viability, T/C [%]"
1,C=C(F)C(=O)N1CCN(c2nc(OCC3CCCN3C)nc3c2CCN(c2cccc4cccc(Cl)c24)C3)CC1CC#N (centres undefined) + CN1CCN(c2cc(C(=O)Nc3cc4cc(-c5cnn(C)c5)ccc4cn3)ccn2)CC1,101
2,COc1ccc([C@@H](O)c2cc(-c3ncnc4cc(N5CCOCC5)ccc34)c(F)cc2Cl)nn1 + CN1CCN(c2cc(C(=O)Nc3cc4cc(-c5cnn(C)c5)ccc4cn3)ccn2)CC1,109
3,CCCS(=O)(=O)Nc1ccc(F)c(C(=O)c2c[nH]c3ncc(-c4ccc(Cl)cc4)cc23)c1F + CNC(=O)c1ccc(Nc2nc(OC3CCCC3)c3c(-c4ccc5nc(C)oc5c4)c[nH]c3n2)c(OC)c1,69
